The test system of one series is C. neoformans. Briefly: microbe, parasite or virus in culture. In kind it is cell-based, Cryptococcus neoformans. The following applies: for MIC80: Cryptococcus neoformans.
For series [1], the system named is C. neoformans KN99. Briefly: microbe, parasite or virus in culture. In kind it is cell-based. The following applies: Cryptococcus neoformans, KN99, 48 h, read-out: C. neo MIC80.
In another series the test system is M. furfur. The series can be described thus: microbe, parasite or virus in culture. The following applies: Malassezia furfur, read-out: MIC80 in M. furfur. Format: cell-based.
A further series has as its system M. pachydermatis. Briefly: microbe, parasite or virus in culture. In kind it is cell-based. The following applies: Malassezia pachydermatis, read-out: MIC80 in M. pachydermatis.
In series [2] the test system is C. neoformans KN99. In kind it is cell-based, Cryptococcus neoformans.
The subject of series [3] is C. neoformans KN99. In kind it is cell-based, Cryptococcus neoformans. The source holds these as a separate data set.
Series [4] concerns C. neoformans aox1Δ strain. In kind it is cell-based, Cryptococcus neoformans.
The conditions of series [5]: human, in vivo; cited from earlier work.

The text below walks through data of paper PMC8015083 (ACS Omega, 2021).

Converted amounts (≈) assume the structure as drawn. “And” between values parts separate entries of the source, which are not always exact repeats. Identical values can stand only once. Like-named read-outs stand apart in the source and are kept apart here. Some results are limits rather than exact numbers.

Consider `C[C@@H]1[C@H](O)[C@@H](C)/C=C/C=C/C=C/C=C/C=C/C=C/C=C/[C@H](O[C@@H]2O[C@H](C)[C@@H](O)[C@H](N)[C@@H]2O)C[C@@H]2O[C@](O)(C[C@@H](O)C[C@@H](O)[C@H](O)CC[C@@H](O)C[C@@H](O)CC(=O)O[C@H]1C)C[C@H](O)[C@H]2C(=O)O` [AMB, amphotericin B], for which the MIC80 in the series on C. neoformans (read-out: MIC80 alone, AMB) was determined as 1.5 µM (≈ 1.39 µg/mL).

Turning to `Cc1cc(-c2ccc(S(=O)(=O)O)cc2)c2ccc3c(-c4ccc(S(=O)(=O)O)cc4)cc(C)nc3c2n1` [BCS, bathocuproinedisulfonic acid], the “MIC80 alone, BCS” value against C. neoformans was >200 µM.

Take `Cc1cc(C2CCCCC2)n(O)c(=O)c1` [CPO, Ciclopirox olamine]: the MIC in the series with C. neoformans KN99 [1] was 0.87 µM and 0.18 µg/mL. For the same molecule, the MIC80 in the series on M. furfur is ~25 µM (≈ 5.18 µg/mL). Also, in the series on M. pachydermatis, the MIC80 is ~25 µM (≈ 5.18 µg/mL). The “killing of the cells” value in the series with C. neoformans KN99 [2] was determined as 99.9%. In the series with C. neoformans, the FICI came to 0.75. Also, in the series with C. neoformans KN99 [3], the “rescue of inhibition by exogenous copper” value is given as “partially rescued”, the “rescue of inhibition by exogenous iron” value is given as “fully rescued” and the “rescue of inhibition by zinc” value was “did not rescue”. Moreover, the “MIC80 in aox1Δ strain compared with wild type” value in series [4] was “no difference in sensitivity”. Moreover, the “tolerability of oral dosing” value in series [5] was “well tolerated”.

In the case of `Cc1c(O)c(=O)ccn1C` [DFP, deferiprone], in the series with C. neoformans, the “MIC80 alone, DFP” value was 200 µM (≈ 27.8 µg/mL). In the series on C. neoformans (read-out: MIC80 alone, DFP), the MIC80 is > 200 µM.

On to `OC(Cn1cncn1)(Cn1cncn1)c1ccc(F)cc1F` [FLC, fluconazole], for which the MIC80 in the series with C. neoformans (read-out: MIC80 alone, FLC) turned out to be 3 µM (≈ 0.919 µg/mL).

In the case of `O=C(NO)c1ccccc1O` [SHAM, salicylhydroxamic acid], the MIC80 in the series on C. neoformans (read-out: MIC80 alone, SHAM) is 2000 µM (≈ 306 µg/mL).

For `Cc1cc(CC2CCCCC2)n(O)c(=O)c1` [SLU-2321], in the series on C. neoformans, the FICI worked out at 0.63 and the “FICI in combination with CPO” value is listed as 0.51. In the series with C. neoformans KN99 [3], the “rescue of inhibition by exogenous copper” value is “only partially rescued”, the “rescue of inhibition by exogenous iron” value is on record as “fully rescued” and the “rescue of inhibition by zinc” value was “did not rescue”.

For `Cc1cc(Cc2ccc(Cl)cc2)n(O)c(=O)c1` [SLU-2707], in the series with C. neoformans, the FICI worked out at 0.63 and the “FICI in combination with CPO” value stood at 0.37. Further, in the series on C. neoformans KN99 [3], the “rescue of inhibition by exogenous copper” value was “did not rescue”, the “rescue of inhibition by exogenous iron” value is listed as “fully rescued” and the “rescue of inhibition by zinc” value is listed as “did not rescue”.

For the molecule `O=C(O)CC(=O)O` [malonate], the MIC80 with C. neoformans (read-out: MIC80 alone, malonate) turned out to be 25 µM (≈ 2.6 µg/mL).

Regarding `CO/C(=C/C(N)=O)[C@H](C)[C@H](/C=C/c1csc(-c2csc([C@@H](C)/C=C/C=C/C(C)C)n2)n1)OC` [myxothiazol], the “MIC80 alone, myxothiazol” value in the series on C. neoformans turned out to be 5 µM (≈ 2.44 µg/mL).

As for `Cc1ccc2ccc3ccc(C)nc3c2n1` [neocuproine], the MIC80 in the series on C. neoformans (read-out: MIC80 alone, neocuproine) was 0.25 µM (≈ 0.0521 µg/mL).

For `C=C(C)[C@H]1Cc2c(ccc3c2O[C@@H]2COc4cc(OC)c(OC)cc4[C@@H]2C3=O)O1` [rotenone], the MIC80 in the series on C. neoformans (read-out: MIC80 alone, rotenone) stood at 15 µM (≈ 5.92 µg/mL).
